Measurements: patent US11752188B2, “Compositions and methods for nutritional supplements” (DailyColors Health Inc., priority 2020, dated 2023)
Where two headings read alike, the source gives them in different places. One block for each compound: values may come before it.

How the values were obtained:
[1] = target: T1, recombinant human CD39 (Homo sapiens, UniProt P49961); experiment: CD39 in vitro enzymatic assay (ATP, colorimetric 630 nm); type: biochemical;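 note: test compound preincubated 30 min with enzyme, then 30 min reaction with ATP at room temperature, absorbance after detection reagent, 100% activity without compound, 0% without enzyme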
T1 construct: purchased BPS Bioscience 71284 (enzyme); kit #79278
T1 sequence (P49961 1-510): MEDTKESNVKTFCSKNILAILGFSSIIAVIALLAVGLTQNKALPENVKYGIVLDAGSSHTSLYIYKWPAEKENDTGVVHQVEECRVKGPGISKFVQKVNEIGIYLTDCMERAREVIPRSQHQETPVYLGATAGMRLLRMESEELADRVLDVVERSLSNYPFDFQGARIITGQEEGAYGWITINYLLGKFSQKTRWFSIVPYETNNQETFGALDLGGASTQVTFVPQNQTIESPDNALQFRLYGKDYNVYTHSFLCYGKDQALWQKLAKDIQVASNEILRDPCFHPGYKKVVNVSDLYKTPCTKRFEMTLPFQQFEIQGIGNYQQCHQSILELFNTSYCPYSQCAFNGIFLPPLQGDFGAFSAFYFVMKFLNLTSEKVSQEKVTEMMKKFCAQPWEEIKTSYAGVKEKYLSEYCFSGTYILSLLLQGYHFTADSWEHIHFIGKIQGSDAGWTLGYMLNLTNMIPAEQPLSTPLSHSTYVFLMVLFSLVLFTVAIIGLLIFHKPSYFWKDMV
Description: The CD39 enzymatic reactions were conducted in duplicate at room temperature for 30 minutes in a 50 μl mixture containing assay buffer, ATP, CD39 enzymes, and the test compound. Test compounds were preincubated with the enzyme for 30 minutes. Reactions were started by addition of the substrate. The 50 μl reactions were carried out in a 96-well transparent plate. After enzymatic reactions, 100 μl of Colorimetric Detection Reagent was added to the reaction mix. After a 15 minutes incubation, absorbance was measured using a Tecan plate reader at 630 nm.

[2] = target: T2, recombinant human CD73 (Homo sapiens, UniProt P21589); experiment: CD73 in vitro enzymatic assay (colorimetric 630 nm); type: biochemical; settings: TABLE 89
T2 construct: purchased BPS Bioscience 71184 (enzyme); kit #72055
T2 sequence (P21589 27-549): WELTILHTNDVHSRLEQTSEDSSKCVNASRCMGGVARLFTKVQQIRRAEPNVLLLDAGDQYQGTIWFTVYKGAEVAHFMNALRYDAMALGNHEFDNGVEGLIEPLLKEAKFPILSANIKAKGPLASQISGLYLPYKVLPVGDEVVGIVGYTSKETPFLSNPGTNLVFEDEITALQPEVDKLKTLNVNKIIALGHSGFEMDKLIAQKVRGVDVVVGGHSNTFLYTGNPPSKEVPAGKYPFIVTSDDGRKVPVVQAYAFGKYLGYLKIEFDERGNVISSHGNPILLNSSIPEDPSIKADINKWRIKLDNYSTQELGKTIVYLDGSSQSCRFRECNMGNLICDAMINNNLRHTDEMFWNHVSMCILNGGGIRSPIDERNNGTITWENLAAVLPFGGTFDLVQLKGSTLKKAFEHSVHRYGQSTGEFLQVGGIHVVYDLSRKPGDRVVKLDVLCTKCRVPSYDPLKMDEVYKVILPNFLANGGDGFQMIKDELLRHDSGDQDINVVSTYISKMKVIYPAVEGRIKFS
From the text: Here, D5 is the Yellow Blend, D9 is the Purple Blend, D21 is the Green Blend, D13 is the Red Blend, and D31 is CBD. As before, the red blend included Apple Extract, Pomegranate Extract, Tomato Powder, Beet; the green blend included Olive Extract, Rosemary Extract, Green Coffee Bean Extract, Kale; the orange/yellow blend included Onion Extract, Ginger Extract, Grapefruit Extract, Carrot; and the purple/blue blend included Grape, Blueberry Extract, Currant, Elderberry.
Assay Conditions: In general, all assays points were done by following the CD39 and CD73 Inhibitor Screening Assay Kit protocol (BPS Bioscience, #79278 and 72055, respectively). The CD73 enzymatic reactions were conducted in duplicate at room temperature for 30 minutes in a 50 μl mixture containing assay buffer, […], CD73 enzymes, and the test compound. Test compounds were preincubated with the enzyme for 30 minutes. Reactions were started by addition of the substrate. The 50 μl reactions were carried out in a 96-well transparent plate. After enzymatic reactions, 100 μl of Colorimetric Detection Reagent was added to the reaction mix. After a 15 minutes incubation, absorbance was measured using a Tecan plate reader at 630 nm.
Data Analysis: Enzyme activity assays were performed in duplicates at each concentration. The Absorbance intensity data were analyzed and compared. In the absence of the compound, the intensity in each data set was defined as 100% (Ce) activity. In the absence of enzyme, the intensity in each data set was defined as 0% (C0) activity.

Activity (%) Rep. 1 ([1]; 0.001 μM, TABLE 79): 79% | Activity (%) Rep. 2 ([1]; 0.001 μM, TABLE 79): 78% | CD39 Inhibition (%) ([1]; 0.001 μM, TABLE 79): 21% | Net absorbance Rep. 1 ([1]; 0.001 μM, TABLE 79): 0.42 | Net absorbance Rep. 2 ([1]; 0.001 μM, TABLE 79): 0.41 | Activity (%) Rep. 1 ([1]; 0.001 μM, TABLE 80): 99% | Activity (%) Rep. 2 ([1]; 0.001 μM, TABLE 80): 90% | Inhibition (%) ([1]; 0.001 μM, TABLE 80): 5% | Net absorbance Rep. 1 ([1]; 0.001 μM, TABLE 80): 0.281 | Net absorbance Rep. 2 ([1]; 0.001 μM, TABLE 80): 0.254 | Activity (%) Rep. 1 ([1]; 0.001 μM, TABLE 81): 96% | Activity (%) Rep. 2 ([1]; 0.001 μM, TABLE 81): 92% | Inhibition (%) ([1]; 0.001 μM, TABLE 81): 6% | Net absorbance Rep. 1 ([1]; 0.001 μM, TABLE 81): 0.51 | Net absorbance Rep. 2 ([1]; 0.001 μM, TABLE 81): 0.49 | Activity (%) Rep. 1 ([1]; 0.001 μM, TABLE 83): 86% | Activity (%) Rep. 2 ([1]; 0.001 μM, TABLE 83): 89% | Inhibition (%) ([1]; 0.001 μM, TABLE 83): 13% | Net absorbance Rep. 1 ([1]; 0.001 μM, TABLE 83): 0.25 | Net absorbance Rep. 2 ([1]; 0.001 μM, TABLE 83): 0.26 | Activity (%) Repeat 1 ([1]; 0.001 μM, TABLE 85): 85% | Activity (%) Repeat 2 ([1]; 0.001 μM, TABLE 85): 89% | Inhibition (%) ([1]; 0.001 μM, TABLE 85): 13% | Net Signal (Absorbance) Repeat 1 ([1]; 0.001 μM, TABLE 85): 0.27 | Net Signal (Absorbance) Repeat 2 ([1]; 0.001 μM, TABLE 85): 0.29 | Activity (%) Rep. 1 ([1]; 0.01 μM, TABLE 79): 49% | Activity (%) Rep. 2 ([1]; 0.01 μM, TABLE 79): 56% | CD39 Inhibition (%) ([1]; 0.01 μM, TABLE 79): 47% | Net absorbance Rep. 1 ([1]; 0.01 μM, TABLE 79): 0.26 | Net absorbance Rep. 2 ([1]; 0.01 μM, TABLE 79): 0.30 | Activity (%) Rep. 1 ([1]; 0.01 μM, TABLE 80): 54% | Activity (%) Rep. 2 ([1]; 0.01 μM, TABLE 80): 51% | Inhibition (%) ([1]; 0.01 μM, TABLE 80): 47% | Net absorbance Rep. 1 ([1]; 0.01 μM, TABLE 80): 0.154 | Net absorbance Rep. 2 ([1]; 0.01 μM, TABLE 80): 0.145 | Activity (%) Rep. 1 ([1]; 0.01 μM, TABLE 81): 36% | Activity (%) Rep. 2 ([1]; 0.01 μM, TABLE 81): 37% | Inhibition (%) ([1]; 0.01 μM, TABLE 81): 64% | Net absorbance Rep. 1 ([1]; 0.01 μM, TABLE 81): 0.19 | Net absorbance Rep. 2 ([1]; 0.01 μM, TABLE 81): 0.20 | Activity (%) Rep. 1 ([1]; 0.01 μM, TABLE 83): 67% | Activity (%) Rep. 2 ([1]; 0.01 μM, TABLE 83): 66% | Inhibition (%) ([1]; 0.01 μM, TABLE 83): 33% | Net absorbance Rep. 1 ([1]; 0.01 μM, TABLE 83): 0.20 | Net absorbance Rep. 2 ([1]; 0.01 μM, TABLE 83): 0.19 | Activity (%) Repeat 1 ([1]; 0.01 μM, TABLE 85): 65% | Activity (%) Repeat 2 ([1]; 0.01 μM, TABLE 85): 68% | Inhibition (%) ([1]; 0.01 μM, TABLE 85): 34% | Net Signal (Absorbance) Repeat 1 ([1]; 0.01 μM, TABLE 85): 0.21 | Net Signal (Absorbance) Repeat 2 ([1]; 0.01 μM, TABLE 85): 0.22 | Activity (%) Rep. 1 ([1]; 0.1 μM, TABLE 79): 14% | Activity (%) Rep. 2 ([1]; 0.1 μM, TABLE 79): 19% | CD39 Inhibition (%) ([1]; 0.1 μM, TABLE 79): 84% | Net absorbance Rep. 1 ([1]; 0.1 μM, TABLE 79): 0.08 | Net absorbance Rep. 2 ([1]; 0.1 μM, TABLE 79): 0.10 | Activity (%) Rep. 1 ([1]; 0.1 μM, TABLE 80): 26% | Activity (%) Rep. 2 ([1]; 0.1 μM, TABLE 80): 26% | Inhibition (%) ([1]; 0.1 μM, TABLE 80): 74% | Net absorbance Rep. 1 ([1]; 0.1 μM, TABLE 80): 0.073 | Net absorbance Rep. 2 ([1]; 0.1 μM, TABLE 80): 0.073 | Activity (%) Rep. 1 ([1]; 0.1 μM, TABLE 81): 16% | Activity (%) Rep. 2 ([1]; 0.1 μM, TABLE 81): 10% | Inhibition (%) ([1]; 0.1 μM, TABLE 81): 87% | Net absorbance Rep. 1 ([1]; 0.1 μM, TABLE 81): 0.08 | Net absorbance Rep. 2 ([1]; 0.1 μM, TABLE 81): 0.06 | Activity (%) Rep. 1 ([1]; 0.1 μM, TABLE 83): 30% | Activity (%) Rep. 2 ([1]; 0.1 μM, TABLE 83): 29% | Inhibition (%) ([1]; 0.1 μM, TABLE 83): 70% | Net absorbance Rep. 1 ([1]; 0.1 μM, TABLE 83): 0.09 | Net absorbance Rep. 2 ([1]; 0.1 μM, TABLE 83): 0.09 | Activity (%) Repeat 1 ([1]; 0.1 μM, TABLE 85): 39% | Activity (%) Repeat 2 ([1]; 0.1 μM, TABLE 85): 38% | Inhibition (%) ([1]; 0.1 μM, TABLE 85): 61% | Net Signal (Absorbance) Repeat 1 ([1]; 0.1 μM, TABLE 85): 0.13 | Net Signal (Absorbance) Repeat 2 ([1]; 0.1 μM, TABLE 85): 0.13
Compound: POM-1

Net absorbance Rep. 1 ([2]; 1 μM): 0.40 | Net absorbance Rep. 2 ([2]; 1 μM): 0.36 | inhibition at 1 µM ([2]; 1 μM): 13% | activity at 1 µM ([2]; 1 μM, read-out: Activity (%) Rep. 1): 92% | activity at 1 µM ([2]; 1 μM, read-out: Activity (%) Rep. 2): 82% | Net absorbance Rep. 1 ([2]; 10 μM): 0.23 | Net absorbance Rep. 2 ([2]; 10 μM): 0.25 | inhibition at 10 µM ([2]; 10 μM): 44% | activity at 10 µM ([2]; 10 μM, read-out: Activity (%) Rep. 1): 53% | activity at 10 µM ([2]; 10 μM, read-out: Activity (%) Rep. 2): 58% | Net absorbance Rep. 1 ([2]; 100 μM): 0.12 | Net absorbance Rep. 2 ([2]; 100 μM): 0.08 | inhibition at 100 µM ([2]; 100 μM): 78% | activity at 100 µM ([2]; 100 μM, read-out: Activity (%) Rep. 1): 27% | activity at 100 µM ([2]; 100 μM, read-out: Activity (%) Rep. 2): 17%
Compound: O=c1c(O)c(-c2ccc(O)c(O)c2)oc2cc(O)cc(O)c12 [Quercetin]
